# Assays:
# LCFA oxidation in BMDMs = assay: 9,10-3H-palmitate oxidation (3H2O release) in BMDMs; assay type: cell-based, mouse; conditions: 3 μM etomoxir
# Protocol: BMDMs at day 6 of differentiation were seeded at 3×10^5 cells/well in 12 well plates in BMDM media. The next day, cells were treated in DMEM containing 25 mM glucose supplemented with 5% FBS, 2 mM L-Glutamax, 100 units/mL, 100 μg/mL penicillin/streptomycin, 1 mM of sodium pyruvate, 1 mM carnitine, and 5% v/v conditioned media containing macrophage colony stimulating factor (M-CSF) under one of 5 conditions: control, 20 ng/mL of IL-4±3 μM or 200 μM of etomoxir, or 200 nM rotenone, or 200 nM antimycin A for 24 hr. Fatty acid oxidation was measured 24 hours later as previously described (Rognstad, R. (1991) Estimation of peroxisomal and mitochondrial fatty acid oxidation in rat hepatocytes using tritiated substrates. Biochem J 279:147-150, 1991; Cha, B. S., Ciaraldi, T. P., Park, K. S., Carter, L., Mudaliar, S. R., and Henry R R. (2005) Impaired fatty acid metabolism in type 2 diabetic skeletal muscle cells is reversed by PPARgamma agonists. Am J Physiol Endocrinol Metab. 289, E151-9) following a fluid change to DMEM with components as described above except 10 mM glucose and 0.2 μCi (final concentration of 5 μM) BSA-conjugated [9,10-3H]palmitic acid. No additional IL-4 was added at the time of this fluid change, but etomoxir, rotenone and antimycin A were added, and the plates were placed in a […] incubator at 37° C. for 3 hr. After incubation, a 100 μL aliquot of the culture medium was passed over an ion-exchange resin, and the column was washed twice with 0.75 ml of water. Free fatty acids were retained by the resin, whereas the tritium hydrolyzed from radiolabeled palmitate catabolism was released as labeled water, which passes freely through the resin, and is subsequently counted for radioactivity. All data are corrected for protein content in each well. There were 3 technical replicates for each condition, and 4 biological replicates arising from 4 separate animals.
# BMDMs [1] = assay: ADP- or FCCP-stimulated respiration in permeabilized WT, Cpt1a-/- and Cpt2-/- BMDMs; assay type: cell-based, mouse; conditions: 200 μM etomoxir; independent of CPT-1 activity; also stated for Treg cells
# [2] = test system: isolated rat liver mitochondria; assay: ADP- vs FCCP-stimulated respiration in isolated liver mitochondria; assay type: biochemical; conditions: high etomoxir (100 μM), pyruvate/malate
# Protocol: Mouse liver mitochondria were isolated according to standard techniques (Rogers, G. W., Brand, M. D., Petrosyan, S., Ashok, D., Elorza, A. A., Ferrick, D. A., and Murphy, A. N. (2011) High throughput microplate respiratory measurements using minimal quantities of isolated mitochondria. PLoS One. 6, e21746). The liver from a male mouse was minced and rinsed several times in MSHE [70 mM sucrose, 210 mM mannitol, 5 mM HEPES (pH 7.2), and 1 mM EGTA with 0.5% (w/v) fatty acid-free BSA] to remove blood. Tissue was disrupted using a drill-driven Teflon-on-glass Dounce homogenizer (between 2-4 strokes). The homogenate was centrifuged at 800 g for 10 min and the supernatant was filtered through cheesecloth and centrifuged at 8000 g for 10 min. […]
# Phosphorylating respiration was measured in isolated liver mitochondria (1.5 μg/well) as previously described (Rogers, G. W., Brand, M. D., Petrosyan, S., Ashok, D., Elorza, A. A., Ferrick, D. A., and Murphy, A. N. (2011) High throughput microplate respiratory measurements using minimal quantities of isolated mitochondria. PLoS One. 6, e21746), and offered 10 mM pyruvate, 1 mM malate, and 4 mM ADP. Uncoupler stimulated respiration was measured after addition of oligomycin (3 ng/mg mitochondrial protein) and FCCP (4 μM). […]
# BMDMs [3] = assay: Intracellular free coenzyme A levels in BMDMs; assay type: cell-based, mouse; conditions: 200 μM etomoxir, IL-4, 20 hr
# Protocol: On Day 6 of differentiation, BMDMs were seeded at 1.2×10^6 cells/well in 6-well plates. 24 hr later, BMDMs were mock-treated or co-treated with 20 ng/mL IL-4±200 μM etomoxir±500 μM CoA in DMEM supplemented with 5% FBS, 2 mM L-glutamine, 100 units/mL, […] penicillin/streptomycin, 500 μM of sodium pyruvate and 5% v/v conditioned media containing macrophage colony stimulating factor (M-CSF) for 20 hr. Prior to sample collections, cells were washed with 600 μL of 0.9% (w/v) NaCl twice. Three wells per replicate per treatment were combined in 2 mL centrifuge tubes and centrifuged at 500 g for 5 mins at 4° C. The supernatant was removed, and the cell pellet was re-suspended in 75 μL of ice-cold 0.7% (v/v) perchloric acid for 5 min. Samples were then centrifuged at 10,000 g for 7 mins at 4° C. and the resulting supernatant was adjusted to pH 7 with 2M NaOH and 500 mM K2HPO4. The coenzyme A concentration was determined with Coenzyme A Assay Kit following manufacturer's instructions (Sigma MAK034) using 40 μL of sample supernatant. Coenzyme A levels were normalized to total cellular protein (BCA method).
# Arginase = Arginase activity in BMDMs; assay type: cell-based, mouse; conditions: 200 μM etomoxir, IL-4, 24 hr
# Protocol: On Day 6 of differentiation, BMDMs were seeded at 1×10^6 cells/well in 6-well plates. 24 hr later, BMDMs were mock-treated or co-treated with 20 ng/mL IL-4±200 μM etomoxir in DMEM supplemented with 5% FBS, 2 mM L-glutamine, 100 units/mL, 100 μg/mL penicillin/streptomycin, 500 μM of sodium pyruvate and 5% v/v conditioned media containing macrophage colony stimulating factor (M-CSF) for 24 hr. Prior to sample collections, cells were washed with 600 μL of ice-cold PBS twice and scraped into 1.5 mL centrifuge tubes. Cell lysate was prepared according to Arginase Activity Assay Kit (Sigma MAK112) instructions and the 20 μL of lysate was used to measure arginase activity. Arginase activity was adjusted to total cell number.
smiles,measurement,setting,value
CCOC(=O)[C@@]1(CCCCCCOc2ccc(Cl)cc2)CO1 [etomoxir],3H2O release from tritiated palmitate,LCFA oxidation in BMDMs,effectively suppress
same,phosphorylating and uncoupled respiration,BMDMs [1],pronounced off-target effect on phosphorylating respiration with a secondary effect at uncoupled respiration
same,respiration driven by ADP versus FCCP,[2],greater inhibitory effect on respiration driven by ADP versus FCCP
same,intracellular free CoA levels,BMDMs [3],significantly dropped
same,Arginase activity,Arginase,unaffected
